Laboratory results published in ChEMBL document CHEMBL3612050, “Dual inhibition of Staphylococcus aureus DNA gyrase and topoisomerase IV activity by phenylalanine-derived (Z)-5-arylmethylidene rhodanines” (Bioorg Med Chem, 2015).
≈ marks a conversion by molar mass, not a printed value.

Tests used:
[1] = test system: Staphylococcus aureus; experiment: Inhibition of Staphylococcus aureus Topoisomerase 4 assessed as inhibition of supercoiled pBR322 DNA relaxation after 30 mins by agarose gel electrophoresis
[2] = target: DNA gyrase (Staphylococcus aureus) (UniProt P0A0K8+P20831)
DNA gyrase (Staphylococcus aureus), sequence (P0A0K8 2-644 limits assumed): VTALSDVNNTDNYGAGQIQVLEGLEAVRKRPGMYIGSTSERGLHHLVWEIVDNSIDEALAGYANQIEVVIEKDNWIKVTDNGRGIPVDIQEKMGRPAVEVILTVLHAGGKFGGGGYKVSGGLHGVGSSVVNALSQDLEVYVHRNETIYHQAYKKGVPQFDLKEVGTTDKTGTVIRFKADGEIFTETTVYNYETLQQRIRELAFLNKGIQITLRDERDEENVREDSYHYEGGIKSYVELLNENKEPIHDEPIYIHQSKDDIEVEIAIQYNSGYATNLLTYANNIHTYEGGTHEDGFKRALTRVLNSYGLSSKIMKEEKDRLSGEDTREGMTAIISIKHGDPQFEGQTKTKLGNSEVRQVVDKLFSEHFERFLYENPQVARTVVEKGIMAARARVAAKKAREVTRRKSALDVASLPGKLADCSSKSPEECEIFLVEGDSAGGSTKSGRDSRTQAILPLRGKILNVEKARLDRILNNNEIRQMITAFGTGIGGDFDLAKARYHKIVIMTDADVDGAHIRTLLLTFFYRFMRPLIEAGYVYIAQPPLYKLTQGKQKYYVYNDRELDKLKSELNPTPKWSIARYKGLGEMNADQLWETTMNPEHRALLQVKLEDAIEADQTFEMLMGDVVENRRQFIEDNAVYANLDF
DNA gyrase (Staphylococcus aureus), sequence (P20831 whole entry partner): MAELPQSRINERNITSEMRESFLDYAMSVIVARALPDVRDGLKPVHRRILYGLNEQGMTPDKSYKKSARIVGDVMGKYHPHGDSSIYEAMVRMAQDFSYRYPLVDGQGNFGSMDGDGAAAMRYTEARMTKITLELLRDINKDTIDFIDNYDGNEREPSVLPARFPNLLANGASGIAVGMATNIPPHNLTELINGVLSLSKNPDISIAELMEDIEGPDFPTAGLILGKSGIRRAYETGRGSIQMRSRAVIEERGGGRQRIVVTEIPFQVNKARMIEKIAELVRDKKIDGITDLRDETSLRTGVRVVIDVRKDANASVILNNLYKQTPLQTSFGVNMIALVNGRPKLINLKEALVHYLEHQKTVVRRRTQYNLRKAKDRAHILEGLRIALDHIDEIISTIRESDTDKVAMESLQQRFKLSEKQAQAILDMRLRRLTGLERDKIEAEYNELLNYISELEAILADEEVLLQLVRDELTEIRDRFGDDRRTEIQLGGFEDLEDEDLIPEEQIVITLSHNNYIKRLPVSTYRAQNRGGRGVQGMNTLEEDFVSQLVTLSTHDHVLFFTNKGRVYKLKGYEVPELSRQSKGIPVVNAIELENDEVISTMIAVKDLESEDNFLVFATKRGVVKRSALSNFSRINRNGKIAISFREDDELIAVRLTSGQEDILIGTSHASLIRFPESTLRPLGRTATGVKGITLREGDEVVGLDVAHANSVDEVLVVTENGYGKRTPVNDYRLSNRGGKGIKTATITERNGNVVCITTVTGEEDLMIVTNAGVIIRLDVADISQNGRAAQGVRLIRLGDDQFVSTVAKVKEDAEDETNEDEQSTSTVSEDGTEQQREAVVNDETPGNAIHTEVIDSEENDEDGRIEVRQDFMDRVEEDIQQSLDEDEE
Description: Inhibition of Staphylococcus aureus DNA gyrase assessed as inhibition of negative supercoiling of pBR322 DNA after 30 mins by agarose gel electrophoresis

| SMILES | MIC [1] [µM] | MIC [2] [µM] |
| --- | --- | --- |
| O=C(O)[C@@H](Cc1ccccc1)N1C(=O)/C(=C/c2cccc(Oc3ccc(F)cc3)c2)SC1=S | 5 (≈ 2.4 µg/mL) | 17.5 (≈ 8.39 µg/mL) |
| O=C(O)[C@H](Cc1ccccc1)N1C(=O)/C(=C/c2cccc(Oc3ccccc3)c2)SC1=S | 10 (≈ 4.62 µg/mL) | 50 (≈ 23.1 µg/mL) |
| O=C(O)[C@H](Cc1ccccc1)N1C(=O)/C(=C/c2cccc(Cc3ccc(Cl)c(Cl)c3)c2)SC1=S | 0.75 (≈ 0.396 µg/mL) | 7.5 (≈ 3.96 µg/mL) |
| O=C(O)[C@H](Cc1ccccc1)N1C(=O)/C(=C/c2cccc(OCc3ccccc3)c2)SC1=S | 17.5 (≈ 8.32 µg/mL) | 25 (≈ 11.9 µg/mL) |
| O=C(O)[C@H](Cc1ccccc1)N1C(=O)/C(=C/c2cccc(Oc3ccc(Cl)c(Cl)c3)c2)SC1=S | 2.5 (≈ 1.33 µg/mL) | 5 (≈ 2.65 µg/mL) |
| O=C(c1ccccc1)c1cccc(/C=C2\SC(=S)N([C@@H](Cc3ccccc3)C(=O)O)C2=O)c1 | 50 (≈ 23.7 µg/mL) | 50 (≈ 23.7 µg/mL) |
| O=C(O)[C@H](Cc1ccccc1)N1C(=O)/C(=C/c2cccc(Cc3ccccc3)c2)SC1=S | 17.5 (≈ 8.04 µg/mL) | 25 (≈ 11.5 µg/mL) |
| CO[C@@H]1[C@@H](OC(N)=O)[C@@H](O)[C@H](Oc2ccc3c(O)c(NC(=O)c4ccc(O)c(CC=C(C)C)c4)c(=O)oc3c2C)OC1(C)C | 2.5 (≈ 1.53 µg/mL) |  |
| O=C(O)[C@H](Cc1ccccc1)N1C(=O)/C(=C/c2cccc(-c3ccccc3)c2)SC1=S | 0.5 (≈ 0.223 µg/mL) | 17.5 (≈ 7.8 µg/mL) |
| O=C(O)[C@H](Cc1ccccc1)N1C(=O)/C(=C/c2cccc(Oc3cccc(Cl)c3)c2)SC1=S | 7.5 (≈ 3.72 µg/mL) | 10 (≈ 4.96 µg/mL) |
| O=C(O)[C@H](Cc1ccccc1)N1C(=O)/C(=C/c2cccc(OC/C=C\c3ccccc3)c2)SC1=S | 5 (≈ 2.51 µg/mL) | 10 (≈ 5.02 µg/mL) |
| O=C(O)[C@H](Cc1ccccc1)N1C(=O)/C(=C/c2cccc(-c3ccc(Cl)c(Cl)c3)c2)SC1=S | 10 (≈ 5.14 µg/mL) | 5 (≈ 2.57 µg/mL) |
